# From US11708348B2, “Protease inhibitors for treatment of coronavirus infections” (The Scripps Research Institute, priority 2021, dated 2023)
# Read-outs that look alike come from different tables or passages of the source.
# System: SARS-CoV-2 strain USA-WA1/2020
# Assay: microbe, parasite or virus in culture
# Format: cell-based
# Settings: Severe acute respiratory syndrome coronavirus 2, HeLa-ACE2, 24 h, HeLa-ACE2 cells, SARS-CoV-2 infection, 24 h, read-out: EC50, uM (Hela)
Structure (SMILES),EC50,EC50 (given as bound)
"CC1(C)[C@@H]2[C@@H](C(=O)N[C@@H](C[C@@H]3CCNC3=O)C(=O)COC(F)(F)F)N(C(=O)C(=O)NC3CC(F)(F)C3)C[C@@H]21 [Compound 536, (1R,2S,5S)-3-(2-((3,3-difluorocyclo-butyl)amino)-2-oxoacetyl)-6,6-dimethyl-N-((S)-3-oxo-1-((S)-2-oxopyrrolidin-3-yl)-4-(trifluoromethoxy)butan-2-yl)-3-azabicyclo-[3.1.0]hexane-2-carboxamide]",0.05 to 0.2 µM,
"CO[C@@H]1C[C@@H](C(=O)N[C@@H](C[C@@H]2CCNC2=O)C(=O)COC(F)(F)F)N(C(=O)C(=O)NC(C)(C)C)C1 [Compound 537, (2S,4R)-1-(2-(tert-butylamino)-2-oxoacetyl)-4-methoxy-N-((S)-3-oxo-1-((S)-2-oxopyrrolidin-3-yl)-4-(trifluoromethoxy)butan-2-yl)pyrrolidine-2-carboxamide]",,> 1 µM
"CC(C)(C)C[C@H](NC(=O)c1cnc(C(F)(F)F)s1)C(=O)N[C@@H](C[C@@H]1CCNC1=O)C(=O)COC(F)(F)F [Compound 538, N-((S)-4,4-dimethyl-1-oxo-1-(((S)-3-oxo-1-((S)-2-oxopyrrolidin-3-yl)-4-(trifluoromethoxy)butan-2-yl)amino)pentan-2-yl)-2-(trifluoromethyl)-thiazole-5-carboxamide]",< 0.05 µM,
"O=C(Nc1ccccc1F)C(=O)N1[C@H](C(=O)N[C@@H](C[C@@H]2CCNC2=O)C(=O)COC(F)(F)F)C[C@@H]2C[C@@H]21 [Compound 539, (1S,3S,5S)-2-(2-((2-fluorophenyl)amino)-2-oxoacetyl)-N-((S)-3-oxo-1-((S)-2-oxopyrrolidin-3-yl)-4-(trifluoromethoxy)butan-2-yl)-2-azabicyclo-[3.1.0]hexane-3-carboxamide]",0.05 to 0.2 µM,
"CC1(C)C[C@@H](C(=O)N[C@@H](C[C@@H]2CCNC2=O)C(=O)COC(F)(F)F)N(C(=O)C(=O)NC2(C)CC2)C1 [Compound 540, (S)-4,4-dimethyl-1-(2-((1-methylcyclo-propyl)amino)-2-oxoacetyl)-N-((S)-3-oxo-1-((S)-2-oxopyrrolidin-3-yl)-4-(trifluoromethoxy)butan-2-yl)pyrrolidine-2-carboxamide]",,> 1 µM
"CC1(NC(=O)C(=O)N2[C@H](C(=O)N[C@@H](C[C@@H]3CCNC3=O)C(=O)COC(F)(F)F)CCC23CC3)CC1 [Compound 541, (S)-4-(2-((l-methyl-cyclopropyl)amino)-2-oxoacetyl)-N-((S)-3-oxo-1-((S)-2-oxopyrrolidin-3-yl)-4-(trifluoromethoxy)butan-2-yl)-4-azaspiro-[2.4]heptane-5-carboxamide]",,> 1 µM
"O=C(NCC(F)(F)F)C(=O)N1[C@@H]2CC[C@@H](C2)[C@H]1C(=O)N[C@@H](C[C@@H]1CCNC1=O)C(=O)COC(F)(F)F [Compound 542, (1R,3S,4S)-N-((S)-3-oxo-1-((S)-2-oxopyrrolidin-3-yl)-4-(trifluoromethoxy)butan-2-yl)-2-(2-oxo-2-((2,2,2-trifluoroethyl)-amino)acetyl)-2-azabicyclo[2.2.1]-heptane-3-carboxamide]",0.05 to 0.2 µM,
"CC1(C)C[C@@H](C(=O)N[C@@H](C[C@@H]2CCNC2=O)C(=O)COC(F)(F)F)N(C(=O)C(=O)NC2CC(F)(F)C2)C1 [Compound 543, (S)-1-(2-((3,3-difluorocyclo-butyl)amino)-2-oxoacetyl)-4,4-dimethyl-N-((S)-3-oxo-1-((S)-2-oxopyrrolidin-3-yl)-4-(trifluoromethoxy)butan-2-yl)pyrrolidine-2-carboxamide]",0.5 to 1 µM,
"O=C1NCC[C@H]1C[C@H](NC(=O)[C@@H]1[C@H]2CCC[C@H]2CN1C(=O)C(=O)N1CCOCC1)C(=O)COC(F)(F)F [Compound 544, (1S,3aR,6aS)-2-(2-morpholino-2-oxoacetyl)-N-((S)-3-oxo-1-((S)-2-oxopyrrolidin-3-yl)-4-(trifluoromethoxy)butan-2-yl)octahydrocyclo-penta[c]pyrrole-1-carboxamide]",0.5 to 1 µM,
"Cc1cc(C(=O)N2C[C@@H]3CCC[C@@H]3[C@H]2C(=O)N[C@@H](C[C@@H]2CCNC2=O)C(=O)COC(F)(F)F)no1 [Compound 545, (1S,3aR,6aS)-2-(5-methylisoxazole-3-carbonyl)-N-((S)-3-oxo-1-((S)-2-oxopyrrolidin-3-yl)-4-(trifluoromethoxy)butan-2-yl)octahydrocyclopenta[c]pyrrole-1-carboxamide]",0.05 to 0.2 µM,
"CC1(NC(=O)C(=O)N2[C@H]3CC[C@H](C3)[C@H]2C(=O)N[C@@H](C[C@@H]2CCNC2=O)C(=O)COC(F)(F)F)CC1 [Compound 546, (1S,3S,4R)-2-(2-((l-methylcyclopropyl)-amino)-2-oxoacetyl)-N-((S)-3-oxo-1-((S)-2-oxopyrrolidin-3-yl)-4-(trifluoromethoxy)butan-2-yl)-2-azabicyclo-[2.2.1]heptane-3-carboxamide]",0.2 to 0.5 µM,
"C[C@@H]1C[C@H]2[C@H](C[C@H](C(=O)N[C@@H](C[C@@H]3CCNC3=O)C(=O)COC(F)(F)F)N2C(=O)C(=O)NC(C)(C)C)O1 [Compound 547, (2R,3aS,5R,6aS)-4-(2-(tert-butylamino)-2-oxoacetyl)-2-methyl-N-((S)-3-oxo-1-((S)-2-oxopyrrolidin-3-yl)-4-(trifluoromethoxy)butan-2-yl)hexahydro-2H-furo[3,2-b]pyrrole-5-carboxamide]",,> 1 µM
"O=C(N[C@H]1[C@@H]2COC[C@@H]21)C(=O)N1C[C@@H]2CCC[C@@H]2[C@H]1C(=O)N[C@@H](C[C@@H]1CCNC1=O)C(=O)COC(F)(F)F [Compound 548, (1S,3aR,6aS)-2-(2-(((1R,5S,6r)-3-oxabicyclo[3.1.0]-hexan-6-yl)amino)-2-oxoacetyl)-N-((S)-3-oxo-1-((S)-2-oxopyrrolidin-3-yl)-4-(trifluoromethoxy)butan-2-yl)octahydrocyclo-penta[c]pyrrole-1-carboxamide]",0.2 to 0.5 µM,
"O=C1NCC[C@H]1C[C@H](NC(=O)[C@@H]1[C@H]2CCC[C@H]2CN1C(=O)c1noc2c1COCC2)C(=O)COC(F)(F)F [Compound 549, (1S,3aR,6aS)-2-(6,7-dihydro-4H-pyrano[3,4-d]isoxazole-3-carbonyl)-N-((S)-3-oxo-1-((S)-2-oxopyrrolidin-3-yl)-4-(trifluoromethoxy)butan-2-yl)octahydrocyclo-penta[c]pyrrole-1-carboxamide]",0.05 to 0.2 µM,
"Cc1cccnc1NC(=O)C(=O)N1C[C@@H]2CCC[C@@H]2[C@H]1C(=O)N[C@@H](C[C@@H]1CCNC1=O)C(=O)COC(F)(F)F [Compound 550, (1S,3aR,6aS)-2-(2-((3-methylpyridin-2-yl)amino)-2-oxoacetyl)-N-((S)-3-oxo-1-((S)-2-oxopyrrolidin-3-yl)-4-(trifluoromethoxy)butan-2-yl)octahydrocyclo-penta[c]pyrrole-1-carboxamide]",,> 1 µM
"C[C@@H]1C[C@H]2[C@H](C[C@@H](C(=O)N[C@@H](C[C@@H]3CCNC3=O)C(=O)COC(F)(F)F)N2C(=O)C(=O)NC(C)(C)C)O1 [Compound 551, (2R,3aS,5S,6aS)-4-(2-(tert-butylamino)-2-oxoacetyl)-2-methyl-N-((S)-3-oxo-1-((S)-2-oxopyrrolidin-3-yl)-4-(trifluoromethoxy)butan-2-yl)hexahydro-2H-furo[3,2-b]pyrrole-5-carboxamide]",,> 1 µM
"Cc1ccccc1NC(=O)c1cn([C@@H](CC(C)C)C(=O)N[C@@H](C[C@@H]2CCNC2=O)C(=O)COC(F)(F)F)nn1 [Compound 552, 1-((S)-4-methyl-1-oxo-1-(((S)-3-oxo-1-((S)-2-oxopyrrolidin-3-yl)-4-(trifluoromethoxy)butan-2-yl)amino)pentan-2-yl)-N-(o-tolyl)-1H-l,2,3-triazole-4-carboxamide]",< 0.05 µM,
"CC(C)(C)NC(=O)C(=O)N1C[C@H]2[C@@H]([C@H]1C(=O)N[C@@H](C[C@@H]1CCNC1=O)C(=O)COC(F)(F)F)C21CC1 [Compound 553, (1R,2S,5S)-3-(2-(tert-butylamino)-2-oxoacetyl)-N-((S)-3-oxo-1-((S)-2-oxopyrrolidin-3-yl)-4-(trifluoromethoxy)butan-2-yl)-3-azaspiro-[bicyclo[3.1.0]hexane-6,1'-cyclopropane]-2-carboxamide]",0.05 to 0.2 µM,
"CC(C)(NC(=O)C(=O)N1C[C@@H]2CCC[C@@H]2[C@H]1C(=O)N[C@@H](C[C@@H]1CCNC1=O)C(=O)COC(F)(F)F)C(F)F [Compound 554, (1S,3aR,6aS)-2-(2-((1,1-difluoro-2-methylpropan-2-yl)amino)-2-oxoacetyl)-N-((S)-3-oxo-1-((S)-2-oxopyrrolidin-3-yl)-4-(trifluoromethoxy)butan-2-yl)octahydro-cyclopenta[c]pyrrole-1-carboxamide]",0.05 to 0.2 µM,
"CC(C)(NC(=O)C(=O)N1C[C@H]2[C@@H]([C@H]1C(=O)N[C@@H](C[C@@H]1CCNC1=O)C(=O)COC(F)(F)F)C2(C)C)C(F)F [Compound 555, (1R,2S,5S)-3-(2-((l,l-difluoro-2-methylpropan-2-yl)amino)-2-oxoacetyl)-6,6-dimethyl-N-((S)-3-oxo-1-((S)-2-oxopyrrolidin-3-yl)-4-(trifluoromethoxy)butan-2-yl)-3-azabicyclo-[3.1.0]hexane-2-carboxamide]",< 0.05 µM,
"O=C1NCC[C@H]1C[C@H](NC(=O)[C@@H]1[C@H]2CCC[C@H]2CN1C(=O)c1noc2c1CNCC2)C(=O)COC(F)(F)F [Compound 556, (1S,3aR,6aS)-N-((S)-3-oxo-1-((S)-2-oxopyrrolidin-3-yl)-4-(trifluoromethoxy)butan-2-yl)-2-(4,5,6,7-tetrahydroisoxazolo[4,5-c]pyridine-3-carbonyl)octahydro-cyclopenta[c]pyrrole-1-carboxamide]",,> 1 µM
"O=C1NCC[C@H]1C[C@H](NC(=O)[C@@H]1[C@H]2CCC[C@H]2CN1C(=O)c1noc2ccccc12)C(=O)COC(F)(F)F [Compound 557, (1S,3aR,6aS)-2-(benzo[d]isoxazole-3-carbonyl)-N-((S)-3-oxo-1-((S)-2-oxopyrrolidin-3-yl)-4-(trifluoromethoxy)butan-2-yl)octahydro-cyclopenta[c]pyrrole-1-carboxamide]",< 0.05 µM,
